Experimental data as given in patent US20220356174A1, “PYRIDIN-2-ONE COMPOUNDS USEFUL AS SMARCA2 ANTAGONISTS” (Epizyme, Inc., priority 2018, published 2022).
pIC50: −log10 of the molar value. Read-outs that look alike come from different tables or passages of the source.

Assays:
FL-SMARCA4 = FL-SMARCA4 (Homo sapiens, UniProt P51532); assay: SMARCA4 ATPase activity assay (ADP-Glo, chicken mononucleosome substrate)
A549 cells = assay: High-throughput proliferation (HTP) assay for A549 cells (CellTiter-Glo, 7 days); assay type: cell-based; conditions: Homo sapiens, 168 h, read-out: A549 SMARCA2 IC50
Method in brief: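 A549 cells plated at 62.5 cells/well in F12K + 10% HI-FBS onto pre-dispensed compound, grown 7 days at 37° C., 5% CO2. Viability by CellTiter-Glo luminescence after 30 min at RT; EC50/IC50 from DMSO (0%) and 10 μM Doxorubicin (100%) inhibition controls.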

[1] = target: T1, FL-SMARCA2 (full-length human SMARCA2 isoform 1) (Homo sapiens, UniProt P51531); assay: SMARCA2 ATPase activity assay (ADP-Glo, chicken mononucleosome substrate); assay type: biochemical; conditions: ATPase assay, enzyme 5 nM, ATP 250 uM, chicken mononucleosome 10 nM, 30 min preincubation
T1 construct: FLAG tag (YKDDDDK) (C); made in house; host or cells: Sf21 insect cells (baculovirus, pFastBacI)

H358 cells = assay: High-throughput proliferation (HTP) assay for H358 cells (CellTiter-Glo, 7 days); assay type: cell-based; conditions: Homo sapiens, NCI-H358, 168 h, read-out: H358 SMARCA2 IC50
Method in brief: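 Cells were plated at 1,000 cells/well in RPMI 1640 + 10% HI-FBS + 1% pen/strep on pre-dispensed compound and incubated 7 days at 37 °C, 5% CO2. Viability was read as ATP luminescence with CellTiter-Glo after 30 min at RT. DMSO served as 0% and 10 µM doxorubicin as 100% inhibition for EC50/IC50.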

[2] = Table 3d.1, read-out: FL-SMARCA2 IC>50
[3] = FL-SMARCA4 IC>50, Table 3c.2, ATPase assay, enzyme 5 nM, ATP 250 uM, chicken mononucleosome 10 nM, 30 min preincubation

FL-SMARCA4, sequence (P51532 whole entry): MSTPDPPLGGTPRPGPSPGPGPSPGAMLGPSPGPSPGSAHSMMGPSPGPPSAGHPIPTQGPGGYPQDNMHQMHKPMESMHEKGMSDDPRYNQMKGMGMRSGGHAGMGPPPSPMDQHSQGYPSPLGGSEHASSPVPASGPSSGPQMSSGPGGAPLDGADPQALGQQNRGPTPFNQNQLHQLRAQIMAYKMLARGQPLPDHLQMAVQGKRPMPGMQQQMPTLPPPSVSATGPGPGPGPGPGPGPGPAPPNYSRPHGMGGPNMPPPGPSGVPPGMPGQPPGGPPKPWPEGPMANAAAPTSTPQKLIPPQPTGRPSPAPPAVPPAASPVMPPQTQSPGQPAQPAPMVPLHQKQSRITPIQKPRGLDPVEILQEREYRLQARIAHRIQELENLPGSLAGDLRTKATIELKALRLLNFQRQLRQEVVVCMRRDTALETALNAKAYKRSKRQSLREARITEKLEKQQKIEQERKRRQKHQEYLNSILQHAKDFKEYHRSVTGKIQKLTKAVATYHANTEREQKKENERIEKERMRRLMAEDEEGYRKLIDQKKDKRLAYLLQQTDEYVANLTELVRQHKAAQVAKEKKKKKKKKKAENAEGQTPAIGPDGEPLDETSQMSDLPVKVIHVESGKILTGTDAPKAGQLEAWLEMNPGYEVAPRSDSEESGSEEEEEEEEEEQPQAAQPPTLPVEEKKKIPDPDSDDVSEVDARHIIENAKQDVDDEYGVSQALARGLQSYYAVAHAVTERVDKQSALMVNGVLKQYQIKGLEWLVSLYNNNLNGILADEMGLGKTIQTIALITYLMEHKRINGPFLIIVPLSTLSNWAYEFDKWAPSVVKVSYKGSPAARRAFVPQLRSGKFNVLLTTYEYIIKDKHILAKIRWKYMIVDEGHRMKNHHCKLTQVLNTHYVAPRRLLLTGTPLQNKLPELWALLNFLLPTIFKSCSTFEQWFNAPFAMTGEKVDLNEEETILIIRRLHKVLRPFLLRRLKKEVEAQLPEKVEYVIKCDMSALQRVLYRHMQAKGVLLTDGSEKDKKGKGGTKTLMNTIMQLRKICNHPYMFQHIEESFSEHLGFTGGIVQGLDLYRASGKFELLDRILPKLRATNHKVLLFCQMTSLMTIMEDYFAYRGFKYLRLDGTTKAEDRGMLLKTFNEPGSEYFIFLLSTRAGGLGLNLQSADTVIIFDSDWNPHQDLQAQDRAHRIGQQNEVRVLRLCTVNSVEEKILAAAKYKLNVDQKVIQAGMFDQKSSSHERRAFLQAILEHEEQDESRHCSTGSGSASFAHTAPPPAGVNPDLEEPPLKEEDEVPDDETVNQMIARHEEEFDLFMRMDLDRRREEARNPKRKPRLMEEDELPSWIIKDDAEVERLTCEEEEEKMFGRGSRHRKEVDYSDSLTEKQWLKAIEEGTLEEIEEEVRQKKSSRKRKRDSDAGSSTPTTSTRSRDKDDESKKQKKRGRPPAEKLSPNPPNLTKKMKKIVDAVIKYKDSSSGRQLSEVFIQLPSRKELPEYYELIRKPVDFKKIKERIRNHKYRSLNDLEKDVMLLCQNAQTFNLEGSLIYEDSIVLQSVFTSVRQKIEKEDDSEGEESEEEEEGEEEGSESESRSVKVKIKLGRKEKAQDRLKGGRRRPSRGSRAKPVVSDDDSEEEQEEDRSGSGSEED
T1 sequence (P51531 with tags, fused parts or gaps): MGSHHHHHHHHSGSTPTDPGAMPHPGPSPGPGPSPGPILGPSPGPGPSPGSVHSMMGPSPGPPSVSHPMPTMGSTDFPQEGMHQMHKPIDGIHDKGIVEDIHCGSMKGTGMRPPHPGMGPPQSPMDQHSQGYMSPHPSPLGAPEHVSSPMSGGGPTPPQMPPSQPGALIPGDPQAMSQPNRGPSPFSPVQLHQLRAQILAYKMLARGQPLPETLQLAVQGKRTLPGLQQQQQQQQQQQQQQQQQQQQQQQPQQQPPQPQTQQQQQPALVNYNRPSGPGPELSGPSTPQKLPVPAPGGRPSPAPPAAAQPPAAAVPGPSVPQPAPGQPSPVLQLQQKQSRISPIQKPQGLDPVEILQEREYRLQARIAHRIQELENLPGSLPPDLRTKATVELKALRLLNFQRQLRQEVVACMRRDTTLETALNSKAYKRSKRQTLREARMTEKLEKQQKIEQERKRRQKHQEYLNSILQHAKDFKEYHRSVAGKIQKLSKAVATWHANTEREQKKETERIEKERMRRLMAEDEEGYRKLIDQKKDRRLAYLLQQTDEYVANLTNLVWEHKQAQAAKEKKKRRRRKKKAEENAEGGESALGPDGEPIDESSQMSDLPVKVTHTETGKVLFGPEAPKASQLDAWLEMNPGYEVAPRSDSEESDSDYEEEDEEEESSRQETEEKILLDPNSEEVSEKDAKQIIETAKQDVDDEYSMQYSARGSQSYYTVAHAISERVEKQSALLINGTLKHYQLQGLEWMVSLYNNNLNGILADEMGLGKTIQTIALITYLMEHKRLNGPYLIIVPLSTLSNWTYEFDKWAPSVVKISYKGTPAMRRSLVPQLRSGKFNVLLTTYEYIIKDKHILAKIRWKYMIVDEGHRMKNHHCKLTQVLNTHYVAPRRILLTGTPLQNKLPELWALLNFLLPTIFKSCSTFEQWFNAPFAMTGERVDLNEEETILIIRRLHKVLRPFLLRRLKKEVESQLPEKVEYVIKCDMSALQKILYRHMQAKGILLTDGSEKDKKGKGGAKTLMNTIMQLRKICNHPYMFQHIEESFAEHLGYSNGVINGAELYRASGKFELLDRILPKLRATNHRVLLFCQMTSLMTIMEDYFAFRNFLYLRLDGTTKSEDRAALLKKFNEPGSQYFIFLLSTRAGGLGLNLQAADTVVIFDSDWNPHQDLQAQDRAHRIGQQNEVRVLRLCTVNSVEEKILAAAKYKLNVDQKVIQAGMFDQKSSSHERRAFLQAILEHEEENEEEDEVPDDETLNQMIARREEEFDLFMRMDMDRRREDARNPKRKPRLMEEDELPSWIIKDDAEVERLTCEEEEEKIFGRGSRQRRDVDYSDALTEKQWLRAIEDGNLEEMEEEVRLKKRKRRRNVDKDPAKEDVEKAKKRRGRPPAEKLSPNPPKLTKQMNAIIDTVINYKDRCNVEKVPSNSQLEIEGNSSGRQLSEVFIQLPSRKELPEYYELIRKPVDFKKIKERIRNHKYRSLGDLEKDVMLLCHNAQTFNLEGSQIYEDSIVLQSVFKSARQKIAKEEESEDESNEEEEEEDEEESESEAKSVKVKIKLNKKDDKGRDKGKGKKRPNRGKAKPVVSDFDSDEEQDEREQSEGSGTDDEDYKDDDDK

| SMILES | pIC50 (FL-SMARCA4; FL-SMARCA4 IC50) | pIC50 (A549 cells) | pIC50 [1, 2] | pIC50 (H358 cells) | pIC50 (FL-SMARCA4; [3]) | pIC50 ([1]; Table 3c.1) |
| --- | --- | --- | --- | --- | --- | --- |
| CNC(=O)c1cc(C#Cc2cc(C(=O)Nc3cc(F)c(=O)n(CC(F)F)c3)sc2Cl)on1 [Compound 55d] | 6.61 | < 5.00 | 7.03 | < 5.00 |  |  |
| O=C(Nc1cc(F)c(=O)n(CC(F)F)c1)c1cc(C#Cc2ccn(-c3ccccn3)c(=O)c2)c(Cl)s1 [Compound 97d] | 5.47 | < 5.00 | 5.57 | < 5.00 |  |  |
| O=C(Nc1cc(F)c(=O)n(CC(F)F)c1)c1cc(C#CCn2cnnc2)c(Cl)s1 [Compound 126d] | 5.36 | < 5.00 | 5.80 | < 5.00 |  |  |
| O=C(Nc1cc(F)c(=O)n(CC(F)F)c1)c1cc(C#C[C@@H]2CCOC2)c(Cl)s1 [Compound 79c] |  | 5.89 |  | < 5.00 | 6.85 | 7.25 |
| CN1CC(C#Cc2cc(C(=O)Nc3cc(F)c(=O)n(CC(F)F)c3)sc2Cl)CCC1=O (stereo not shown) [Compound 118d] | 6.26 | 5.14 | 6.61 | < 5.00 |  |  |
| O=C(Nc1cc(F)c(=O)n(CC(F)F)c1)c1cc(C#CC2CCN(CC(F)(F)F)C2)c(Cl)s1 (stereo not shown) [Compound 110d] | 5.34 | < 5.00 | 5.83 | < 5.00 |  |  |
| CN1CCn2c(C#Cc3cc(C(=O)Nc4cc(F)c(=O)n(CC(F)F)c4)sc3Cl)cnc2C1 [Compound 66c] |  | < 5.00 |  | < 5.00 | 6.11 | 6.63 |
| CNC(=O)Cn1cc(C#Cc2cc(C(=O)Nc3cc(F)c(=O)n(CC(F)F)c3)sc2Cl)cn1 [Compound 121c] |  | < 5.00 |  | < 5.00 | 6.42 | 6.72 |
| O=C(Nc1cc(F)c(=O)n(CC(F)F)c1)c1sc(C(F)(F)F)cc1Cl [Compound 48c] |  | < 5.00 |  | < 5.00 | < 4.30 | 4.60 |
| CN1CCCC(C#Cc2cc(C(=O)Nc3cc(F)c(=O)n(CC(F)F)c3)sc2Cl)C1 (stereo not shown) [Compound 140d] | 5.75 | 5.14 | 6.11 | < 5.00 |  |  |
| O=C(Nc1cc(F)c(=O)n(CC(F)F)c1)c1cc(C#CCn2ccnc2)c(Cl)s1 [Compound 116d] | 6.17 | 5.05 | 6.60 | < 5.00 |  |  |
| O=C(Nc1cc(F)c(=O)n(CC(F)F)c1)c1cc(C#Cc2cccnn2)c(Cl)s1 [Compound 55c] |  | 5.42 |  | < 5.00 | 6.57 | 7.11 |
| N#Cc1cccc(C#Cc2cc(C(=O)Nc3cc(F)c(=O)n(CC(F)F)c3)sc2Cl)c1 [Compound 34c] |  | 5.84 |  | < 5.00 | 6.63 | 7.03 |
| O=C(Nc1cc(F)c(=O)n(CC(F)F)c1)c1cc(C#CC2CCCN2)c(Cl)s1 (stereo not shown) [Compound 107d] | 5.81 | < 5.00 | 6.24 | < 5.00 |  |  |
| CN1CCn2cc(C#Cc3cc(C(=O)Nc4cc(F)c(=O)n(CC(F)F)c4)sc3Cl)nc2C1 [Compound 146c] |  | < 5.00 |  | < 5.00 | 4.82 | 5.02 |
| O=C(Nc1cc(F)c(=O)n(CC(F)F)c1)c1cc(C#CCn2cncn2)c(Cl)s1 [Compound 127d] | 5.84 | < 5.00 | 6.23 | < 5.00 |  |  |
| O=C(Nc1cc(F)c(=O)n(CC(F)F)c1)c1cc(-c2ccco2)c(Cl)s1 [Compound 112d] | 5.67 | 5.00 | 6.46 | < 5.00 |  |  |
| O=C(Nc1cc(F)c(=O)n(CC(F)F)c1)c1cc(C#Cc2ccc3nccn3c2)c(Cl)s1 [Compound 115d] | 7.00 | 5.68 | 7.45 | < 5.00 |  |  |
| N#Cc1nc(C#Cc2cc(C(=O)Nc3cc(F)c(=O)n(CC(F)F)c3)sc2Cl)cs1 [Compound 117c] |  | 5.74 |  | 5.83 | 8.16 | 8.28 |
| Cc1sc(C(=O)Nc2cc(F)c(=O)n(CC(F)F)c2)cc1C#N [Compound 81d] | 6.62 | 5.63 | 7.17 | < 5.00 |  |  |
| O=C(Nc1cc(F)c(=O)n(CC(F)F)c1)c1cc(C#Cc2cnccn2)c(Cl)s1 [Compound 40c] |  | 5.55 |  | < 5.00 | 6.59 | 7.00 |
| Cn1cc(C#Cc2cc(C(=O)Nc3cc([N+](=O)[O-])c(=O)n(CC(F)F)c3)sc2C(F)(F)F)cn1 [Compound 128d] | < 4.30 | 5.49 | < 4.30 | 5.39 |  |  |

| SMILES | pIC50 (FL-SMARCA4; FL-SMARCA4 IC50) | pIC50 (A549 cells) | pIC50 [1, 2] | pIC50 (H358 cells) | pIC50 (FL-SMARCA4; [3]) | pIC50 ([1]; Table 3c.1) |
| --- | --- | --- | --- | --- | --- | --- |
| O=C(Nc1cc(F)c(=O)n(CC(F)F)c1)c1cc(C#C[C@H]2C[C@H](CO)C2)c(Cl)s1 [Compound 133d] | 6.78 | 5.54 | 7.34 | < 5.00 |  |  |
| O=C(Nc1cc(F)c(=O)n(CC(F)F)c1)c1cc(C#Cc2ccc(Cl)cc2)c(Cl)s1 [Compound 35c] |  | 5.43 |  | 5.06 | 6.04 | 6.16 |
| O=C(Nc1cc(F)c(=O)n(CC(F)F)c1)c1cc(C#Cc2c[nH]cn2)c(Cl)s1 [Compound 113c] |  | 5.39 |  | < 5.00 | 6.96 | 7.46 |
| O=C(Nc1cc(F)c(=O)n(CC(F)F)c1)c1cc(C#CC2CCOC2)c(Cl)s1 (stereo not shown) [Compound 58c] |  | 5.83 |  | < 5.00 | 6.75 | 7.35 |
| O=C1Cc2ncc(C#Cc3cc(C(=O)NC4=NC(CC(F)F)C(=O)C(F)=C4)sc3Cl)cc2N1 (stereo not shown) [Compound 58d] | 6.99 | < 5.00 | 7.21 | < 5.00 |  |  |
| CNC(=O)c1ncc(C#Cc2cc(C(=O)Nc3cc(F)c(=O)n(CC(F)F)c3)sc2Cl)o1 [Compound 67d] | 7.43 | 5.67 | 7.83 | < 5.00 |  |  |
| O=C(Nc1cc(F)c(=O)n(CC(F)F)c1)c1cc(C#Cc2cnn(CCO)c2)c(Cl)s1 [Compound 122c] |  | 5.34 |  | < 5.00 | 6.89 | 7.28 |
| O=C(Nc1cc(F)c(=O)n(CC(F)F)c1)c1cc(C#Cc2cccc(Cl)c2)c(Cl)s1 [Compound 56c] |  | 5.36 |  | 5.04 | 5.98 | 6.53 |
| CN(C)Cc1cccc(C#Cc2cc(C(=O)Nc3cc(F)c(=O)n(CC(F)F)c3)sc2Cl)c1 [Compound 128c] |  | 5.29 |  | 5.41 | 6.08 | 6.68 |
| O=C(O)c1cccc(C#Cc2cc(C(=O)Nc3cc(F)c(=O)n(CC(F)F)c3)sc2Cl)c1 [Compound 131c] |  | < 5.00 |  | < 5.00 | 7.86 | 8.06 |
| O=C1C[C@H](C#Cc2cc(C(=O)Nc3cc(F)c(=O)n(CC(F)F)c3)sc2Cl)CCN1 [Compound 63d] | 6.29 | < 5.00 | 6.78 | < 5.00 |  |  |
| O=C(Nc1cc(F)c(=O)n(CC(F)F)c1)c1cc(C#CCn2cccn2)c(Cl)s1 [Compound 123d] | 5.80 | < 5.00 | 6.28 | < 5.00 |  |  |
| COc1cccc(C#Cc2cc(C(=O)Nc3cc(F)c(=O)n(CC(F)F)c3)sc2Cl)c1 [Compound 42c] |  | 5.29 |  | < 5.00 | 6.32 | 6.69 |
| O=C(Nc1cc(F)c(=O)n(CC(F)F)c1)c1cc(C#CC2CCCOC2)c(Cl)s1 (stereo not shown) [Compound 68d] | 6.69 | 5.62 | 7.14 | < 5.00 |  |  |
| CS(=O)(=O)c1cccc(C#Cc2cc(C(=O)Nc3cc(F)c(=O)n(CC(F)F)c3)sc2Cl)c1 [Compound 98c] |  | 5.48 |  | < 5.00 | 6.54 | 6.96 |
| N#Cc1cc(C#Cc2cc(C(=O)Nc3cc(F)c(=O)n(CC(F)F)c3)sc2Cl)ccn1 [Compound 151c] |  | 6.05 |  | 5.31 | 6.96 | 7.53 |
| Cc1nsc(C#Cc2cc(C(=O)Nc3cc(F)c(=O)n(CC(F)F)c3)sc2Cl)n1 [Compound 139c] |  | 6.19 |  | 6.26 | 6.73 | 7.22 |
| N#Cc1cc(C(=O)Nc2cc(OC(F)(F)F)c(=O)n(CC(F)F)c2)sc1C(F)(F)F [Compound 103d] | < 4.30 | < 5.00 | < 4.30 | < 5.00 |  |  |
| O=C(Nc1cc(F)c(=O)n(CC(F)F)c1)c1cc(C#C[C@H]2CCC[C@H](O)C2)c(Cl)s1 [Compound 129d] | 6.79 | 5.66 | 7.23 | < 5.00 |  |  |
| CN(C)CCn1cc(C#Cc2cc(C(=O)Nc3cc(F)c(=O)n(CC(F)F)c3)sc2Cl)cn1 [Compound 123c] |  | 5.40 |  | < 5.00 | 5.97 | 6.33 |
| O=C(Nc1ccc(=O)n(CC(F)F)c1)c1cc(F)c(Cl)s1 [Compound 45c] |  | 5.37 |  | < 5.00 | 6.63 | 7.01 |
